Data as given in US20260125382A1, “COMPOUNDS FOR INHIBITING OR DEGRADING CDK2 AND/OR CDK9 AND MEDICINAL USE THEREOF” (KOREA RESEARCH INSTITUTE OF CHEMICAL TECHNOLOGY, priority 2022, published 2026).

How the values were obtained:
CDK9 = target: T1, CDK9 (Homo sapiens, UniProt P50750); experiment: CDK protein degradation activity (Western blotting), CDK9; type: cell-based; details: MDA-MB-231 cells, 16 hours, Western blot
T1 construct: endogenous in cells; host or cells: MDA-MB-231
Method in brief: (§1)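 Protein levels were read by Western blot densitometry, tubulin serving as loading reference. Beforehand, MDA-MB-231 cells had been exposed for 16 hours to 100 nM, 1 μM or 10 μM compound, DMSO as control.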

CDK2 = target: T2, CDK2 (Homo sapiens, UniProt P24941); experiment: CDK protein degradation activity (Western blotting), CDK2; type: cell-based; details: MDA-MB-231 cells, 16 hours, Western blot
T2 construct: endogenous in cells; host or cells: MDA-MB-231
Method in brief: as §1

T1 sequence (P50750 whole entry): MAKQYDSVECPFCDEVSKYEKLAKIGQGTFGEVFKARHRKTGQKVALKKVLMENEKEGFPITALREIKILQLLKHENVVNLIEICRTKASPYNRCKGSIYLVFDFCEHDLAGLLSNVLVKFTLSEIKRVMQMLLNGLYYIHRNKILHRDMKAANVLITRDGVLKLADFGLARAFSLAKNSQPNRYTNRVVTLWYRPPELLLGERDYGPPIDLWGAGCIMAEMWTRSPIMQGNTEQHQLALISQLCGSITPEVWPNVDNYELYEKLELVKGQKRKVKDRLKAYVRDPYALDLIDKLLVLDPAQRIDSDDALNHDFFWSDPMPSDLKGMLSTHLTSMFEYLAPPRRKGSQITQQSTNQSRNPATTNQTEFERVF

Enzyme degradation CDK9 (% remaining) @ 0.1 μM (CDK9)	Enzyme degradation CDK9 (% remaining) @ 1 μM (CDK9)	Enzyme degradation CDK9 (% remaining) @ 10 μM (CDK9)	Enzyme degradation CDK2 (% remaining) @ 0.1 μM (CDK2)	Enzyme degradation CDK2 (% remaining) @ 1 μM (CDK2)	Enzyme degradation CDK2 (% remaining) @ 10 μM (CDK2)	SMILES
0/0/0%	0/0/0%	0/0/0%	60/60/60%	60/60/60%	60/60/60%	O=C1CC[C@H](N2C(=O)c3ccc(N4CCC(C(=O)N5CCC(CN6CCC(CCNc7ncnc8c7ncn8[C@H]7C[C@@H](NC(=O)Cc8ccccc8)C7)CC6)CC5)CC4)cc3C2=O)C(=O)N1 [Compound 421, N-((1s,3s)-3-(6-((2-(1-((1-(1-(2-(2,6-dioxopiperidin-3-yl)-1,3-dioxoisoindolin-5-yl)piperidin-4-carbonyl)piperidin-4-yl)methyl)piperidin-4-yl)ethyl)amino)-9H-purin-9-yl)cyclobutyl)-2-phenylacetamide]
80%	0%	0%	90%	70%	80%	Cc1cccc(C(=O)NC2CC(n3cnc4c(NCc5cccc(N6CCN(CC7CCN(C(=O)COc8ccc9c(c8)C(=O)N([C@H]8CCC(=O)NC8=O)C9=O)CC7)CC6)c5)ncnc43)C2)n1 (stereo partly drawn) [Compound 133, N-((1s,3s)-3-(6-((3-(4-((1-(2-((2-(2,6-dioxopiperidin-3-yl)-1,3-dioxoisoindolin-5-yl)oxy)acetyl)piperidin-4-yl)methyl)piperazin-1-yl)benzyl)amino)-9H-purin-9-yl)cyclobutyl)-6-methylpicolinamide]
0/0/0%	0/0/0%	0/0/0%	30/30/30%	30/30/30%	30/30/30%	O=C1CCC(N2C(=O)c3cc(F)c(N4CCC(C(=O)N5CCC(CCN6CCN(c7ccc(Nc8ncnc9c8ncn9[C@H]8C[C@@H](NC(=O)c9c(Cl)cccc9Cl)C8)cc7)CC6)CC5)CC4)cc3C2=O)C(=O)N1 (stereo partly drawn) [Compound 463, 2,6-dichloro-N-((1s,3s)-3-(6-((4-(4-(2-(1-(1-(2-(2,6-dioxopiperidin-3-yl)-6-fluoro-1,3-dioxoisoindolin-5-yl)piperidin-4-carbonyl)piperidin-4-yl)ethyl)piperazin-1-yl)phenyl)amino)-9H-purin-9-yl)cyclobutyl)benzamide]
0/0/0%	0/0/0%	0/0/0%	50%	30%	30%	O=C1CC[C@H](N2C(=O)c3cc(F)c(N4CCC(C(=O)N5CCC(CCCN6CCN(c7ccc(Nc8ncnc9c8ncn9[C@H]8C[C@@H](NC(=O)Cc9ccccc9)C8)cc7)CC6)CC5)CC4)cc3C2=O)C(=O)N1 [Compound 459, N-((1s,3s)-3-(6-((4-(4-(3-(1-(1-(2-(2,6-dioxopiperidin-3-yl)-6-fluoro-1,3-dioxoisoindolin-5-yl)piperidin-4-carbonyl)piperidin-4-yl)propyl)piperazin-1-yl)phenyl)amino)-9H-purin-9-yl)cyclobutyl)-2-phenylacetamide]
0/0/0%	0/0/0%	0/0/0%	20%	10%	10%	O=C1CC[C@H](N2C(=O)c3cccc(OCC(=O)N4CCC(CN5CCN(c6ccc(Nc7ncnc8c7ncn8[C@H]7C[C@@H](NC(=O)c8c(Cl)cccc8Cl)C7)cc6)CC5)CC4)c3C2=O)C(=O)N1 [Compound 163, 2,6-dichloro-N-((1s,3s)-3-(6-((4-(4-((1-(2-((2-(2,6-dioxopiperidin-3-yl)-1,3-dioxoisoindolin-4-yl)oxy)acetyl)piperidin-4-yl)methyl)piperazin-1-yl)phenyl)amino)-9H-purin-9-yl)cyclobutyl)benzamide]
